Assay results taken from paper PMC10107996, “Release of hepatitis B virions is positively regulated by glucose‐regulated protein 78 through direct interaction with preS1” (Journal of Medical Virology, 2022).
Entries after “also recorded” stand apart in the source; their conditions may differ. No end group written: not given here.

Assays:
recombinant GRP78 = target: T1, recombinant GRP78 (Homo sapiens, UniProt P11021); test: Isothermal titration calorimetry (ITC) with recombinant GRP78; type: binding
T1 construct: His; made in house; host or cells: Escherichia coli BL21
Procedure: Additionally, we collected purified recombinant GRP78 protein (Supporting Information: Figure S2) and HBV‐enveloped particles from the cell supernatant, followed by separation by ultracentrifugation at 4°C for isothermal titration calorimetry (ITC) experiments. […] These findings confirmed the ability of HBV to promote GRP78 expression and identified that GRP78 directly interacts with preS1 and HBV‐enveloped particles.
Affinity constants under equilibrium (Ka) were obtained using a Nano ITC instrument. GRP78 protein solution (300 µL) was titrated with repeated injections of 40 µL solution until saturation at 25 °C. Nano Analyze software was used for the integration of heat signals and nonlinear regression analysis of the data.

[1] = tested on: HBV‐enveloped particle release from HepG2.2.15 cells; test: HBV-enveloped particle release and viral DNA content, particle gel assay and qPCR, HepG2.2.15 cells; type: cell-based, hepatitis B virus; details: for inhibition of GRP78-enhanced enveloped‐particle release and viral DNA content: GRP78‐overexpressing HepG2.2.15 cells
Procedure: (§1) HBV virions were identified by particle gel assay.[25] HBV‐producing cells were cultured, followed by harvesting of the culture medium. Cell supernatant was added to 35% PEG8000 and shaken at 4°C for >2 h. The viral particles were dissolved in TNE buffer, incubated overnight at 4°C, and subjected to agarose gel electrophoresis. The samples were transferred to a nitrocellulose membranes, treated with methanol for 30 min, blocked with 5% nonfat milk, and incubated with anti‐preS1 (for enveloped particles) or anti‐HBc (for capsid particles) antibodies for 1 h at 20°C. Following incubation with an antimouse secondary antibody (1:10,000) at 4°C overnight, the membrane was visualized using the an enhanced chemiluminescence western blot detection kit (Beyotime Biotech).

[2] = tested on: HBV‐enveloped particle release from HepAD38 cells; test: HBV-enveloped particle release, particle gel assay, HepAD38 cells; type: cell-based, hepatitis B virus
Procedure: as §1

[3] = target: T2, purified recombinant GRP78 protein (human, UniProt P11021 19-654); test: ITC; recombinant GRP78 with preS1 peptides; details: both partners purified
T2 construct: source: recombinant, purified

[4] = target: T2, purified recombinant GRP78 protein; test: MST; purified truncated GST-preS1 proteins with GRP78; details: both partners purified
[5] = synthesized peptide and recombinant GRP78, 25 °C

T1 sequence (P11021 19-654): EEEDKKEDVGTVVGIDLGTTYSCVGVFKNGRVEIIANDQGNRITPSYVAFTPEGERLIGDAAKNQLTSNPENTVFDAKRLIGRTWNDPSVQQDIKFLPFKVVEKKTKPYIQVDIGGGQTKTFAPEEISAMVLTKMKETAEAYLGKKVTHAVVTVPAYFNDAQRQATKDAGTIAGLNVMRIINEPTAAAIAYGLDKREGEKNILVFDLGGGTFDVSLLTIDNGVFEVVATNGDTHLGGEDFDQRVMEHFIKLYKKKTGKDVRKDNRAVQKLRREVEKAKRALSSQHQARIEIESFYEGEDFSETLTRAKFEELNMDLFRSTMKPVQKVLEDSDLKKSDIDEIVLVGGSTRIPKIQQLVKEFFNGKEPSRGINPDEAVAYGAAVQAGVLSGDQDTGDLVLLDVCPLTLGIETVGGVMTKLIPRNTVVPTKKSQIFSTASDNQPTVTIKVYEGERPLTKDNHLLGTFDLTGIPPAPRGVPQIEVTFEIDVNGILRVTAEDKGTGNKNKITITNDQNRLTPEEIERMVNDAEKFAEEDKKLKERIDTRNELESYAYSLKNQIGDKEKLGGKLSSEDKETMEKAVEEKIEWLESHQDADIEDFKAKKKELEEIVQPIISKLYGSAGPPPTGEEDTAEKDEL
T2 sequence (P11021 19-654): as above

Row | Molecule | N (sites) (recombinant GRP78; [5]) | △H (recombinant GRP78; [5]) | further results
1 | FHSHHNRPMKSP [GBP63, phage-display 12-mer peptide […]] | 0.248±3.22 sites | 8.83 ± 119 kcal/mol | 
2 | GSWNTFRAQPTI [GBP64, phage-display 12-mer peptide […]] | 2.88±0.501 sites | 0.486 ± 0.186 kcal/mol | 
3 | LTPHKHHKHLHA [GBP65] | 10.0±1.05 sites | 2.58 ± 0.647 kcal/mol | 
4 | MKAHHSQLYPRH [GBP66, phage-display 12-mer peptide […]] | 10.0±2.38 sites | 1.55 ± 0.647 kcal/mol | 
5 | QPTPISPPLRN [pep60, hydrophobic preS1 peptide 91‐[…]‐102] |  |  | inhibition of GRP78-enhanced enveloped‐particle release and viral DNA content ([1]; n = 3): minimal effects; interaction with GRP78 in words (recombinant GRP78; 25 °C): weak interaction
6 | SNIGALQFLPPP [GBP67, phage-display 12-mer peptide […]] | negative | negative | KD (recombinant GRP78; [5]): negative
7 | VTTVGMPNKSFF [GBP68] | 5.79±0.738 sites | 3.49 ± 0.881 kcal/mol | effect on abundance of cytoplasmic viral particles and core particle release ([1]; HepG2.2.15 and HepAD38 cells, particle gel assay with anti‐HBcAg and anti‐preS1 antibodies): negligible effects; inhibitory effect on HBV‐enveloped particle release and viral DNA content in supernatant ([1]; HepG2.2.15 cells, particle gel assay with anti‐preS1 antibody and qPCR, n = 3): significantly stronger inhibitory effect; also recorded: dose‐dependent manner; inhibition of enveloped‐particle release [2]: dose‐dependent manner
8 | WDLAWMFRLPVG [pep415, reference compound] |  |  | inhibition of GRP78-enhanced enveloped‐particle release and viral DNA content ([1]; n = 3): inhibited
9 | DPAFGANSL (also called pepp56; source: designed hydrophobic peptide of preS1) [pep56 (19-DPAFGANSL-29)] |  |  | Kd [3]: 6.59 nM
10 | GST-preS1-p3 (residues 66-119) (domain or fragment, also: GST fusion) GFTPPHGGLLGWSPQAQGILTTLPAAPPPASTNRQSGRQPTPISPPLRDSHPQA |  |  | Kd [4]: 431 nM
11 | QGIMQTVPAN (source: designed hydrophobic peptide of preS1) [pep59 (70-QGIMQTVPAN-80)] |  |  | Kd [3]: 10.6 nM
12 | GST-preS1-p2 (residues 25-90) (domain or fragment, also: GST fusion) FPDHQLDPAFGANSNNPDWDFNPNKDHWPEANQVGAGAFGPGFTPPHGGLLGWSPQAQGILTTLPA |  |  | Kd [4]: 1200 nM
